Source: ChEMBL document CHEMBL5321290, “Discovery of the Diphenyl 6-Oxo-1,6-dihydropyridazine-3-carboxylate/carboxamide Analogue J27 for the Treatment of Acute Lung Injury and Sepsis by Targeting JNK2 and Inhibiting the JNK2-NF-κB/MAPK Pathway” (J Med Chem, 2023)
Activity calls are given as the source filed them. The calls are words filed in the database; no cut-off is given here.

Assays:
[1] = Subacute toxicity in ICR mouse assessed as pathological change in lung at 500 to 100 mg/kg, IG measured for 10 days by hematoxylin and eosin dye based light microscopy; type: organism-based; conditions: in vivo, po, 240 h, dose 500-100 mg/kg, time 10 day
[2] = AUC (0 to t) in Sprague-Dawley rat at 10 mg/kg, po measured upto 24 hrs by UPLC-MS/MS analysis; type: ADME, organism-based; design: dose 10 mg/kg, time < 24 hrs, route po; conditions: in vivo
J774.A1 [3] = experiment: Antiinflammatory activity against mouse J774A.1 cells assessed as inhibition of LPS-stimulated TNFalpha release measured at 10 uM after 30 mins by ELISA relative to control; type: functional; conditions: J774.A1, 0.5 h
[4] = Subacute toxicity in ICR mouse assessed as change in body weight at 500 to 100 mg/kg, IG measured for 10 days; type: organism-based; conditions: in vivo, po, 240 h, dose 500-100 mg/kg, time 10 day
Mus musculus [5] = experiment: Antiinflammatory activity against LPS-induced acute lung injury C57 mouse model assessed as decrease in LPS-induced neutrophile count in broncho alveolar lavage fluid at 20 mg/kg, po thrice at 12 hrs interval; type: functional, organism-based; conditions: Bronchoalveolar lavage
Mus musculus [6] = experiment: Antiinflammatory activity against LPS-induced acute lung injury C57 mouse model assessed as decrease in LPS-induced IL-6 level in alveolar lavage fluid at 20 mg/kg, po thrice at 12 hrs interval; type: functional, organism-based; conditions: Bronchoalveolar lavage
Mus musculus [7] = experiment: Antiinflammatory activity against LPS-induced acute lung injury C57 mouse model assessed as improvement in alveolar structure at 20 mg/kg, po thrice at 12 hrs interval by hematoxylin and eosin dye based light microscopy; type: functional, organism-based; conditions: time 36.0 hrs
J774.A1 [8] = experiment: Antiinflammatory activity against mouse J774A.1 cells assessed as inhibition of LPS-stimulated IL6 mRNA expression pretreated for 2 hrs followed by stimulated with LPS by RT-qPCR analysis; type: functional, cell-based; conditions: dose 2.5-10 µM
[9] = Oral bioavailability n Sprague-Dawley rat at 10 mg/kg measured upto 24 hrs by UPLC-MS/MS analysis; type: ADME, organism-based; conditions: in vivo
[10] = Subacute toxicity in ICR mouse assessed as pathological change in spleen at 500 to 100 mg/kg, IG measured for 10 days by hematoxylin and eosin dye based light microscopy; type: organism-based; conditions: in vivo, po, 240 h, dose 500-100 mg/kg, time 10 day
[11] = Subacute toxicity in ICR mouse assessed as pathological change in liver at 500 to 100 mg/kg, IG measured for 10 days by hematoxylin and eosin dye based light microscopy; type: organism-based; conditions: in vivo, po, 240 h, dose 500-100 mg/kg, time 10 day
Mus musculus [12] = experiment: Antiinflammatory activity against LPS-induced acute lung injury C57 mouse model assessed as decrease in LPS-induced protein concentration in broncho alveolar lavage fluid at 20 mg/kg, po thrice at 12 hrs interval; type: functional, organism-based; conditions: Bronchoalveolar lavage
[13] = target: Mitogen-activated protein kinase 9 (Homo sapiens, UniProt P45984); experiment: Inhibition of JNK2 (unknown origin) assessed as inhibition rate at 10 uM by SPR analysis relative to control
Chain of Mitogen-activated protein kinase 9 (P45984 whole entry, looked up): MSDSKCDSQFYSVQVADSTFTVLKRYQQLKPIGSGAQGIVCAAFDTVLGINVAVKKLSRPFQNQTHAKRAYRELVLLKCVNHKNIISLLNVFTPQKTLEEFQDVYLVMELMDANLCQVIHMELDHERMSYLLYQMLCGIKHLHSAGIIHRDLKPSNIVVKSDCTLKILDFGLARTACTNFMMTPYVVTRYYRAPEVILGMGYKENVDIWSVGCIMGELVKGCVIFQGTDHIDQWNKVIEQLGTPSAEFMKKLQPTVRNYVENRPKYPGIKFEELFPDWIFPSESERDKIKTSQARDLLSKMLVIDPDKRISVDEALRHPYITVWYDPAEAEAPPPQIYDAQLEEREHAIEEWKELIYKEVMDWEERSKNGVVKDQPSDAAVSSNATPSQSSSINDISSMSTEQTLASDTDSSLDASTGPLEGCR

For `COc1cc2nccc(Oc3ccc(NC(=O)c4nn(-c5ccc(C)cc5)c(=O)cc4C)cc3)c2cc1OC`, the Activity [1] was “Non-Toxic”, the AUCt [2] was 7792.708 ng·h/mL and the inhibition at 10 µM (J774.A1 [3]) was 56.8%. The Activity [4] was “Non-Toxic”, the Activity (Mus musculus [5]) was “inactive” and the Activity (Mus musculus [6]) was “Active”. For the same compound, the Activity (Mus musculus [7]) was “inactive”, the Activity (J774.A1 [8]) was “Dose-Dependent Effect” and the F [9] was 30.74%. The Activity [10] was “Non-Toxic”, the Activity [11] was “Non-Toxic” and the Activity (Mus musculus [12]) was “inactive”. It also gave an inhibition [13] of 64.8%.
